The results in this text go back to ChEMBL document CHEMBL1123097, “Structure-activity relationship in PAF-acether. 2. rac-1-O-Octadecyl-2-O-acetyl-3-O-[gamma-(dimethylamino)propyl]glycerol ” (J Med Chem, 1985).

The term EC50 denotes the midpoint of the concentration-response curve.

Experiment [1] deals with Cavia porcellus. Kind of experiment: Compound was evaluated in anesthetized guinea pigs, for the percentage drop in platelet counts between 2 min before and 1 min after injection at 520ng/kg. The class given is functional.
The species named for experiment [2] is Oryctolagus cuniculus. Kind of experiment: In vitro platelet aggregating activity in washed rabbit platelets. It is filed as functional.
The subject of experiment [3] is Cavia porcellus. Kind of experiment: Compound was evaluated in anesthetized guinea pigs, for the percentage drop in platelet counts between 2 min before and 1 min after injection at 33 ng/kg. It is filed as functional.
The subject of experiment [4] is Cavia porcellus. Kind of experiment: Compound was evaluated in anesthetized guinea pigs, for the percentage drop in platelet counts between 2 min before and 1 min after injection at 66 ng/kg. The class given is functional.
For experiment [5], the species on record is Oryctolagus cuniculus. Nature of the experiment: In vitro platelet aggregating activity in washed rabbit platelets; No lysis observed. The class given is functional.
Experiment [6] relates to Cavia porcellus. Kind of experiment: Compound was evaluated in anesthetized guinea pigs, for the percentage decrease of bronchoconstrictive activity. It is filed as functional, Lung. Also on record: scale not given: the % may be the effect or the level left.
Experiment [7] concerns Cavia porcellus. Nature of the experiment: Compound was evaluated in anesthetized guinea pigs, for the percentage drop in platelet counts between 2 min before and 1 min after injection. The class given is functional.

`CCCCCCCCCCCCCCCCCCOCC(O)COCCC[N+](C)(C)C.[OH-]` (stereo not given): the Aggregation in the experiment on Cavia porcellus [1] is reported as 100%. In the experiment filed under Oryctolagus cuniculus [2], this molecule came in with an EC50 above 4000 nM.

Molecule `CCCCCCCCCCCCCCCCCCOC[C@H](COP(=O)([O-])OCC[N+](C)(C)C)OC(C)=O` had an Aggregation in the experiment on Cavia porcellus [3] of 48%. For the same molecule, the EC50 in the experiment filed under Oryctolagus cuniculus [2] came out at 0.057 nM.

In the case of `CCCCCCCCCCCCCCCCCCOCC(COCCCN(C)C)OC(C)=O.Cl` (stereo not given), the Aggregation in the experiment on Cavia porcellus [3] and with Cavia porcellus [4] was 0% throughout. Moreover, in the experiment filed under Oryctolagus cuniculus [5], the EC50 came out at 170 nM.

In the experiment on Cavia porcellus [6], `CCCCCCCCCCCCCCCCCCOCC(COP(=O)([O-])OCC[N+](C)(C)C)OC(C)=O` (racemic) displayed an Activity of 100%. Further, the Aggregation in the experiment with Cavia porcellus [7] was 0%. In the experiment listed under Oryctolagus cuniculus [2], the response was half-maximal at 0.22 nM (EC50).
